How the values were obtained:
[1] = tested on: C6 2'-deoxy atomic mutant domain 1 (RNA, riboswitch, 2'-deoxy at 6) GGCUUCAACAACCCCGUAGGUUGGGCCGCAAGGCAGCGAAUCUACUGGAGCC; assay: ITC; settings: 100 mM KCl, 10 mM MgCl2; 40 mM HEPES-K pH 7.0, 298 K; 1 mM ligand titrated into 100 µM RNA
[2] = tested on: NAD+ riboswitch domain 1, wild type (unmodified domain 1 RNA) (RNA, riboswitch) GGCUUCAACAACCCCGUAGGUUGGGCCGCAAGGCAGCGAAUCUACUGGAGCC; assay: ITC; settings: 100 mM KCl, 10 mM MgCl2; 40 mM HEPES-K pH 7.0 (pH 7.2 in Figure 5 legend), 298 K
[3] = tested on: domain 1 crystallization RNA, unmodified (RNA, riboswitch) GGCUUCAACAACCCCGUAGGUUGGGCCGAAAGGCAGCGAAUCUACUGGAGCC; assay: X-ray crystallography; settings: Mg2+
[4] = tested on: G47 2'-deoxy atomic mutant domain 1 (RNA, riboswitch, 2'-deoxy at 47) GGCUUCAACAACCCCGUAGGUUGGGCCGCAAGGCAGCGAAUCUACUGGAGCC; assay: ITC; settings: 100 mM KCl, 10 mM MgCl2; 40 mM HEPES-K pH 7.0, 298 K; 1 mM ligand titrated into 100 µM RNA
[5] = tested on: C6U:G47A mutant domain 1 (RNA, riboswitch) GGCUUUAACAACCCCGUAGGUUGGGCCGCAAGGCAGCGAAUCUACUAGAGCC; assay: ITC; settings: 100 mM KCl, 10 mM MgCl2; 40 mM HEPES-K pH 7.0, 298 K; 1 mM ligand titrated into 100 µM RNA
[6] = tested on: domain 1 crystallization RNA, 5-bromocytidine form (RNA, riboswitch, 5-bromocytidine at 3 or at 42 and 45 (which form per ligand: Table S1, not seen)) GGCUUCAACAACCCCGUAGGUUGGGCCGAAAGGCAGCGAAUCUACUGGAGCC; assay: X-ray crystallography; settings: Mg2+

Row | SMILES | Kd [2] [µM] | binding [3] | binding [6] | other results
1 | NC(=O)C1=CN([C@@H]2O[C@H](COP(=O)(O)OP(=O)(O)OC[C@H]3O[C@@H](n4cnc5c(N)ncnc54)[C@H](O)[C@@H]3O)[C@@H](O)[C@H]2O)C=CC1 |  |  |  | binding ([6]; only ADP moiety visible, also Mn2+ form 6TFH): yes
2 | Nc1ncnc2c1ncn2[C@@H]1O[C@H](COP(=O)(O)O)[C@@H](O)[C@H]1O |  |  | yes | 
3 | CNc1ncnc2c1ncn2[C@@H]1O[C@H](COP(=O)(O)OP(=O)(O)OP(=O)(O)O)[C@@H](O)[C@H]1O | 50 ± 19 |  | yes | 
4 | Nc1ncnc2c1ncn2[C@@H]1O[C@H](COP(=O)(O)OP(=O)(O)OP(=O)(O)O)C[C@H]1O |  | yes |  | 

Continued, in another order:

Row | Kd [2] [µM] | binding [3] | binding [6] | SMILES | other results
5 | 89 ± 15 | yes |  | Nc1ncnc2c1ncn2[C@@H]1O[C@H](COP(=O)(O)OP(=O)(O)O)[C@@H](O)[C@H]1O | binding [1]: weak; binding [4]: weak; binding [5]: no
6 | > 150 |  |  | NC(=O)c1ccc[n+]([C@@H]2O[C@H](COP(=O)(O)OP(=O)(O)OC[C@H]3O[C@@H](n4cnc5c(N)ncnc54)[C@H](O)[C@@H]3O)[C@@H](O)[C@H]2O)c1 | binding ([6]; ADP moiety and nicotinamide ribose 5' carbon visible): yes
7 |  |  | yes | Nc1ncnc2c1ncn2[C@@H]1O[C@H](COP(=O)(O)OP(=O)(O)OP(=O)(O)O)[C@@H](O)[C@H]1O | 
8 |  | yes |  | Nc1ncnc2c1ncn2[C@@H]1O[C@H](COP(=O)(O)OS(=O)(=O)O)[C@@H](OP(=O)(O)O)[C@H]1O | 

From article PMC7297122 (2020)
